Experimental findings from US9394305B2, “Substituted imidazo[1,2-a]pyridine compounds as tropomyosin receptor kinase a (TrkA) inhibitors” (Dr. Reddy's Laboratories Ltd., priority 2014, dated 2016) are described below.

Where two headings read alike, the source gives them in different places. A value given as a limit tells only on which side of the number the result lay.

The IC50 is the concentration that inhibits the measured activity by half.

For this assay, the target named is T1, TrkA kinase (Homo sapiens, UniProt P04629).
T1 construct: purchased Upstate, USA
T1 sequence (P04629 33-796): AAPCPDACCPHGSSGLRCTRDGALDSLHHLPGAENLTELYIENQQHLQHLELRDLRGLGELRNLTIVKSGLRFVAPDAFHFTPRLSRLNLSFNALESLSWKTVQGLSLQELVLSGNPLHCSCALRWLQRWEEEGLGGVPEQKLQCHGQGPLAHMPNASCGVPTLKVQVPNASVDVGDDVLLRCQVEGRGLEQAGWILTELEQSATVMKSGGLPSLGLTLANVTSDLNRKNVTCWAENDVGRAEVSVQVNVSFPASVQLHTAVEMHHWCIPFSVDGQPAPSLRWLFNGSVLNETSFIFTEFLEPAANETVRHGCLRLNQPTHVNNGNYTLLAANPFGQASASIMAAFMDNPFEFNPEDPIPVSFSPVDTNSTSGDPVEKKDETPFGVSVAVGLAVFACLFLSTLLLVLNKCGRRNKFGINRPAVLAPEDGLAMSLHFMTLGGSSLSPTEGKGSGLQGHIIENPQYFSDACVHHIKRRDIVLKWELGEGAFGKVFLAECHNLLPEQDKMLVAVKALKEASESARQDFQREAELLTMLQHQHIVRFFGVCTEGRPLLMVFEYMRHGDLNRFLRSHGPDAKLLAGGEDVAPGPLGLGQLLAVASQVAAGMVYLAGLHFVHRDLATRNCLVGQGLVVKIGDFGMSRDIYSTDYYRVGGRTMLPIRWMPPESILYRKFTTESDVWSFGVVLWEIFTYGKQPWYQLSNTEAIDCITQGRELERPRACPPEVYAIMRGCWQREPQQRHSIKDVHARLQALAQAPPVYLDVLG
Nature of the assay: In vitro TrkA inhibitory activity using TR-FRET assay. It counts as biochemical. The conditions noted are these: 5 ng TrkA, 500 μM ATP, values given as bins. In short, it runs like this: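 TrkA kinase (5 ng) was preincubated 30 min at 20-35° C. with compound (1% DMSO final), then 40 nM ULight poly GT and 500 μM ATP were added for 30 min before an EDTA stop. Phosphorylation was detected by Eu anti-phosphotyrosine TR-FRET (ex 340, em 615/665 nm), and IC50 came from sigmoidal fits of 1/3 serial dilutions.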
A general note: Time-resolved FRET reads energy transfer from a long-lived donor to a nearby acceptor.

[1] abbreviates: read-out: TrkA inhibition in-vitro IC50.
The mark [2] stands for this setting: read-out: TrkA inhibitory activity in-vitro IC50.

Turning to `CCN(C)S(=O)(=O)NC(=O)c1cnc2ccc(N3CCC[C@@H]3c3cc(F)ccc3OC)cn12` [Example 55, (R)-N-(N-ethyl-N-methylsulfamoyl)-6-(2-(5-fluoro-2-methoxyphenyl)pyrrolidin-1-yl)imidazo[1,2-a]pyridine-3-carboxamide], the concentration for half-maximal inhibition (IC50) under setting [1] is no more than 0.05 µM.

For `O=C(NS(=O)(=O)c1ccc(N2CC[C@H](O)C2)nc1)c1cnc2ccc(N3CCCCC3c3cc(F)ccc3F)cn12` (stereo partly drawn) [Example 51, 6-(2-(2,5-difluorophenyl)piperidin-1-yl)-N-((6-((S)-3-hydroxypyrrolidin-1-yl)pyridin-3-yl)sulfonyl)imidazo[1,2-a]pyridine-3-carboxamide], the IC50 under setting [2] is 1 to 10 µM.

For `CN(c1nccs1)S(=O)(=O)NC(=O)c1cnc2ccc(N3CCC[C@@H]3c3cc(F)ccc3F)cn12` [Example 48, (R)-6-(2-(2,5-difluorophenyl)pyrrolidin-1-yl)-N-(N-methyl-N-(thiazol-2-yl)sulfamoyl)imidazo[1,2-a]pyridine-3-carboxamide], the IC50 under setting [1] is no more than 0.05 µM.

In the case of `CN(c1nncs1)S(=O)(=O)NC(=O)c1cnc2ccc(N3C[C@@H](F)C[C@@H]3c3cc(F)ccc3OC3CCOCC3)cn12` [Example 97, 6-((2R,4S)-4-fluoro-2-(5-fluoro-2-((tetrahydro-2H-pyran-4-yl)oxy)phenyl)pyrrolidin-1-yl)-N—(N-methyl-N-(1,3,4-thiadiazol-2-yl)sulfamoyl)imidazo[1,2-a]pyridine-3-carboxamide], the IC50 under setting [1] was no more than 0.05 µM.

On to `CCN(C)S(=O)(=O)NC(=O)c1cnc2ccc(N3CCCCC3c3cc(F)ccc3F)cn12` (single isomer, unassigned) [Example 70, 6-(2-(2,5-difluorophenyl)piperidin-1-yl)-N-(N-ethyl-N-methyl-sulfamoyl)imidazo[1,2-a]pyridine-3-carboxamide], for which the IC50 under setting [2] was in the range of 1 to 10 µM.

For `CC1(S(=O)(=O)NC(=O)c2cnc3ccc(N4CCCCC4c4cc(F)cc5c4OCCO5)cn23)CC1` (single isomer, unassigned) [Example 52, 6-(2-(7-fluoro-2,3-dihydrobenzo[b][1,4]dioxin-5-yl)piperidin-1-yl)-N-((1-methylcyclopropyl)sulfonyl)imidazo[1,2-a]pyridine-3-carboxamide], under setting [2], the IC50 was in the range of 1 to 10 µM.

Take `CCN(CCF)S(=O)(=O)NC(=O)c1cnc2ccc(N3C[C@@H](F)C[C@@H]3c3cc(F)ccc3OC3CCOCC3)cn12` [Example 102, N—(N-ethyl-N-(2-fluoroethyl)sulfamoyl)-6-((2R,4S)-4-fluoro-2-(5-fluoro-2-((tetrahydro-2H-pyran-4-yl)oxy)phenyl)pyrrolidin-1-yl)imidazo[1,2-a]pyridine-3-carboxamide]: the IC50 under setting [1] was no more than 0.05 µM.

As to `COCCN(C)S(=O)(=O)NC(=O)c1cnc2ccc(N3C[C@@H](F)C[C@@H]3c3cc(F)ccc3OC3CCOCC3)cn12` [Example 89, 6-((2R,4S)-4-fluoro-2-(5-fluoro-2-((tetrahydro-2H-pyran-4-yl)oxy)phenyl)pyrrolidin-1-yl)-N—(N-(2-methoxyethyl)-N-methylsulfamoyl)imidazo[1,2-a]pyridine-3-carboxamide], the IC50 under setting [1] was no more than 0.05 µM.

With `CC1(S(=O)(=O)NC(=O)c2cnc3ccc(N4CCCC4c4cc(F)cc5c4OCCO5)cn23)CC1` (stereo not drawn) [Example 50, 6-(2-(7-fluoro-2,3-dihydrobenzo[b][1,4]dioxin-5-yl)pyrrolidin-1-yl)-N-((1-methylcyclopropyl)sulfonyl)imidazo[1,2-a]pyridine-3-carboxamide], the IC50 under setting [1] was in the range of 0.1 to 0.5 µM.

Consider `CN(c1ccccn1)S(=O)(=O)NC(=O)c1cnc2ccc(N3C[C@@H](F)C[C@@H]3c3cc(F)ccc3O[C@@H]3CCOC3)cn12` [Example 103, 6-((2R,4S)-4-fluoro-2-(5-fluoro-2-(((R)-tetrahydrofuran-3-yl)oxy)phenyl)pyrrolidin-1-yl)-N—(N-methyl-N-(pyridin-2-yl)sulfamoyl)imidazo[1,2-a]pyridine-3-carboxamide], for which the IC50 under setting [1] is no more than 0.05 µM.

For `CCN(C)S(=O)(=O)NC(=O)c1cnc2ccc(N3C[C@@H](F)C[C@@H]3c3cc(F)cc4c3OCCO4)cn12` [Example 68, N-(N-ethyl-N-methylsulfamoyl)-6-((2R,4S)-4-fluoro-2-(7-fluoro-2,3-dihydrobenzo[b][1,4]dioxin-5-yl)pyrrolidin-1-yl)imidazo[1,2-a]pyridine-3-carboxamide], the IC50 under setting [1] lay in the range of 0.05 to 0.1 µM.

As for `CN(C)C(=O)c1cnc2ccc(N3CCCC3c3cc(F)ccc3F)cn12` (stereo not drawn) [Example 8, 6-(2-(2,5-difluorophenyl)pyrrolidin-1-yl)-N,N-dimethylimidazo[1,2-a]pyridine-3-carboxamide], the IC50 under setting [1] lay within 0.1 to 0.5 µM.
